Measurements as given in PMC7664879, “Discovery of 12O—A Novel Oral Multi-Kinase Inhibitor for the Treatment of Solid Tumor” (Molecules, 2020).

Legend:
SKOV3 = test: CCK-8 cell growth inhibition, SKOV3; assay type: cell-based, human; details: Homo sapiens, SK-OV-3; CCK-8 assay, 72-h incubation; read-out: Cell Lines IC50 SKOV3
Description: (§1) In vitro anticancer screening of all newly synthesized compounds towards human solid tumor cells, cervical (SiHa) and ovarian (SKOV3) cancer cell lines, was carried out by standard CCK-8 assay with cisplatin as the positive control, as cisplatin is one of the most used chemotherapy drugs. […] The compound was further evaluated in a dose response study against a panel of solid tumor cells, including cervical cancer cell lines (SiHa and HeLa), ovarian cancer cell lines (SKOV3 and OVCAR-5), breast cancer cell lines (4T1 and MCF-7), lung cancer cell lines (A549 and H460) to test cytotoxic activity. The IC50 values were summarized in Table 2, including the cytotoxic activity of the cisplatin used as reference compound.
(§2) The viability of cells as determined using the CCK8 assay method. Cells were seeded (2000–3000 cells per well) in 96-well plates. After incubation for 24 h in serum-containing media, the cells were treated with drugs at different concentrations diluted with culture medium for 72 h at 37 °C with a 5% CO2 atmosphere. Then, 10 μL CCK8 regent (Promega, WI) was added to each well, and the plates were incubated for 1–4 h at 37 °C. Finally, absorbance values of test wells (AS), control wells (AC) and blank wells (Ab) at 450 nm were read using the Microplate Reader (Promega, WI). Inhibition ratios were calculated as follows: [(AC − AS)/ (AC−Ab)] × 100%. IC50 values were calculated using GraphPad software.

SiHa = test: CCK-8 cell growth inhibition, SiHa; assay type: cell-based, human; details: Homo sapiens, SiHa; CCK-8 assay, 72-h incubation; read-out: Cell Lines IC50 SiHa
Description: as §1, §2

4T1 = test: CCK-8 cell growth inhibition, 4T1; assay type: cell-based; details: Mus musculus, 4T1; breast cancer; CCK-8 assay, 72-h incubation
Description: as §1
as §2, with “Then, 10 μL CCK8 regent (Promega, WI) was added to each well, and the plates were incubated for 1–4 h at 37 °C.” left out

H460 = test: CCK-8 cell growth inhibition, H460; assay type: cell-based, human; details: Homo sapiens, NCI-H460; lung cancer; CCK-8 assay, 72-h incubation
Description: as §1
as §2, with “Then, 10 μL CCK8 regent (Promega, WI) was added to each well, and the plates were incubated for 1–4 h at 37 °C.” left out

KDR (VEGFR2) = biological target: T1, KDR (VEGFR2) (Homo sapiens, UniProt P35968); test: Kinase inhibition assay (Eurofins KinaseProfiler); assay type: biochemical; details: ATP at Km
T1 construct: purchased Eurofins (KinaseProfiler service)
T1 sequence (P35968 20-1356): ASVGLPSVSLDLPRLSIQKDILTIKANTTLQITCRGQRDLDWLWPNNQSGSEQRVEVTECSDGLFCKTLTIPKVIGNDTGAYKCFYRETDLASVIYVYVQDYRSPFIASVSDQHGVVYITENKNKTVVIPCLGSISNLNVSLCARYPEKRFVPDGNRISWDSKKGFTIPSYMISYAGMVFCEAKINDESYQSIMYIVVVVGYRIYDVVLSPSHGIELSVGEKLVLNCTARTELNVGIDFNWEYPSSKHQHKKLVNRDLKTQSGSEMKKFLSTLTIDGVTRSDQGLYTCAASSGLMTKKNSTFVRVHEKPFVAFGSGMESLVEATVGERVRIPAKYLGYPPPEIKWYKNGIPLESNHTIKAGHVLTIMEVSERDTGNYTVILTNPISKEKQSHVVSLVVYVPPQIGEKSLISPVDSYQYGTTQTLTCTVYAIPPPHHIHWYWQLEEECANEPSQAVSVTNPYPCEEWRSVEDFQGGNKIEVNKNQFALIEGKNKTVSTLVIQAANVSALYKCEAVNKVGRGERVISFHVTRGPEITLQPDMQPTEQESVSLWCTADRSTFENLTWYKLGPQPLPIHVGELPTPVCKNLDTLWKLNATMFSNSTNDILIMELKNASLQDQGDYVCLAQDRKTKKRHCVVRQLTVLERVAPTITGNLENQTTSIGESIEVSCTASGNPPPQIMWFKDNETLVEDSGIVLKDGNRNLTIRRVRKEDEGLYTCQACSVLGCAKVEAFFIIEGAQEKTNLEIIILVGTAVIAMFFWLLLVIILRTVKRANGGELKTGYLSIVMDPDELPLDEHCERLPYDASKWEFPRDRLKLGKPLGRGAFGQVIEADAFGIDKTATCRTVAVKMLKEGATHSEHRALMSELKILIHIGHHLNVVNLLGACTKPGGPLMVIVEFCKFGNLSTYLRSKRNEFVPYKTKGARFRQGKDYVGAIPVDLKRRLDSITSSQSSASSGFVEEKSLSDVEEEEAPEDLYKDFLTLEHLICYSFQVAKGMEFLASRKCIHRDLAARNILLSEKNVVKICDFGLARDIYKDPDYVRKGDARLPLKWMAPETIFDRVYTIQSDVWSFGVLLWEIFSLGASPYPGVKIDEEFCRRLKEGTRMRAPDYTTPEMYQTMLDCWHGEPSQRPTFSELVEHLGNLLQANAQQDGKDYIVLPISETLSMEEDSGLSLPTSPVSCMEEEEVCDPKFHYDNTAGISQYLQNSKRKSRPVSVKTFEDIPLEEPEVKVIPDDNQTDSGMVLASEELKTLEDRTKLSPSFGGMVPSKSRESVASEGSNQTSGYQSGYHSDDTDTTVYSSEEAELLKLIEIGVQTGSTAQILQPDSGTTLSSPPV
Description: (§3) Kinase inhibition profiles were determined using KinaseProfiler services provided by Eurofins, and ATP concentrations used are the Km of corresponding kinases.
KDR (h) was incubated with 8 mM MOPS pH 7.0, 0.2 mM EDTA, 0.33 mg/mL myelin basic protein, 10 mM MgAcetate and [gamma-33P]-ATP.
(§4) All the reactions above were initiated by the addition of the Mg/ATP mix. After incubation for 40 min at room temperature, the reaction was stopped by the addition of phosphoric acid to a concentration of 0.5%. An amount of 10 µL of the reaction was then spotted onto a P30 filtermat and washed four times for 4 min in 0.425% phosphoric acid and once in methanol prior to drying and scintillation counting.

c-Kit(h) = biological target: T2, c-Kit(h) (Homo sapiens, UniProt P10721); test: Kinase inhibition assay (Eurofins KinaseProfiler); assay type: biochemical; details: ATP at Km
T2 construct: purchased Eurofins (KinaseProfiler service)
T2 sequence (P10721 26-976): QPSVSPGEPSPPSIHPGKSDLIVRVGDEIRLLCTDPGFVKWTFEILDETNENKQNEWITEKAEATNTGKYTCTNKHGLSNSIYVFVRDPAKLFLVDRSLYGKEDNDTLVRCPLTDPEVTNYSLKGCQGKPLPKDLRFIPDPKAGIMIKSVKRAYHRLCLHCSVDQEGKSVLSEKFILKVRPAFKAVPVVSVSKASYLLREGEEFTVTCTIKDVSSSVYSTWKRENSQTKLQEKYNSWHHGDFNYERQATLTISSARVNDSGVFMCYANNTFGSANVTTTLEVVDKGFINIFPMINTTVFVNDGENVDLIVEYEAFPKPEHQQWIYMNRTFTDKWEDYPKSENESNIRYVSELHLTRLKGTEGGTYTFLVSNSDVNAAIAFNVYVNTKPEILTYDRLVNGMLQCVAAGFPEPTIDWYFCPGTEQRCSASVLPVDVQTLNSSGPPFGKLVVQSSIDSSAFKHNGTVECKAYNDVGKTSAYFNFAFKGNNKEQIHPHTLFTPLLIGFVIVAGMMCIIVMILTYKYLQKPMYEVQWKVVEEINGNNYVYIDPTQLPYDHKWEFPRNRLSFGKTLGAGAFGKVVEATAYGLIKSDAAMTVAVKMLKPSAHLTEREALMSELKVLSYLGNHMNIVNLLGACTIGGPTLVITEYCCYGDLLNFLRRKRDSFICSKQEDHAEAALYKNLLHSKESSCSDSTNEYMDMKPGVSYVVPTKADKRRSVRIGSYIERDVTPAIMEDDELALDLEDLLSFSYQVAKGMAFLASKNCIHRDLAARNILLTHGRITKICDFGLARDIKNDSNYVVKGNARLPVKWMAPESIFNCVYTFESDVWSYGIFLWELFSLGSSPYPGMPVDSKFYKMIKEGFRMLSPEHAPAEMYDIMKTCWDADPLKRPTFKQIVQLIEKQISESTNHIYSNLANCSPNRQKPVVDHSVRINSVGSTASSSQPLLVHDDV
Description: as §3
c-Kit (h) was incubated with 8 mM MOPS pH 7.0, 0.2 mM EDTA, 10 mM MnCl2, 0.1 mg/mL poly(Glu, Tyr) 4:1, 10 mM MgAcetate and [gamma-33P]-ATP.
as §4

Src(1-530)(h) = biological target: T3, Src(1-530)(h) (Homo sapiens, UniProt P12931); test: Kinase inhibition assay (Eurofins KinaseProfiler); assay type: biochemical; details: ATP at Km
T3 construct: Src (1-530) (h) was incubated with; purchased Eurofins (KinaseProfiler service)
T3 sequence (P12931 1-530): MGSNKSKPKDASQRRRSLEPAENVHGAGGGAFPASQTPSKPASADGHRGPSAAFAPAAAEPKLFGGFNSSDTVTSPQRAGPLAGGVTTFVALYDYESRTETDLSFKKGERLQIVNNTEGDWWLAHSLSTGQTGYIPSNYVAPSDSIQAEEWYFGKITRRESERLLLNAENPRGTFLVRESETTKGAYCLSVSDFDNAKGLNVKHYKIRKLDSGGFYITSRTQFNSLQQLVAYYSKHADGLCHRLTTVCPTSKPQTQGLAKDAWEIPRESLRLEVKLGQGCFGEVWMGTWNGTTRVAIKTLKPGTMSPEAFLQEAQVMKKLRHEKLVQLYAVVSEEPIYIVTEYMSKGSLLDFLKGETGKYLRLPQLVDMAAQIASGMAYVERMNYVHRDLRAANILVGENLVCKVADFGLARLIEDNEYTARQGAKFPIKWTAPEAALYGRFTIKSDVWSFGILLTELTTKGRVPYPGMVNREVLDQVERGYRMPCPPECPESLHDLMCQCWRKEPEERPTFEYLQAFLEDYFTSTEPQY
Description: as §3
Src (1-530) (h) was incubated with 8 mM MOPS pH 7.0, 0.2 mM EDTA, 500 uM GGEEEEYFELVKKKK, 10 mM MgAcetate and [gamma-33P]-ATP.
as §4

SiHa xenograft = SiHa xenograft mouse model, oral dosing; assay type: in vivo; details: for Tumor growth inhibition (TGI): SiHa xenograft mice, every day
Description: Based on a desirable set of in vitro properties, 12O was finally selected for further in vivo evaluation. We proceeded to test the antitumor efficacy of 12O in SiHa xenograft mice. Animals were orally given three doses (5, 10, and 20 mg Kg^−1) of 12O, one dose (20 mg Kg^−1) of cisplatin (positive control), or vehicle (control) every day. […] Of note, In Figure 5c, an obvious decrease in tumor size was also observed at the end of observation. The average tumor weight (Figure 5d) of the 12O-treated group was less than that of cisplatin. HE staining was further performed to identify the efficacy of 12O (Figure 5e). […] Additional kinase activities of 12O intimately associated with the growth, survival, and metastasis in tumor cells, may contribute to the antitumor activity, but may also cause side effects. Multi-target kinase inhibitor extensively used in clinic cancer therapy, while hampered by associated adverse reactions and side-effect. Thus, further evidence is needed. An in-depth study of compound 12O is ongoing in our laboratory and will be reported in due course.
All animal studies were conducted under the approval of the Experimental Animal Management Committee of Nankai University (No. NKUEC20190228). Six- to eight-week-old female BALB/c nude mice were purchased from Beijing HFK Bioscience Company. Mice were fed in an SPF-level laboratory animal room. The mice were kept in independent ventilation cages with autoclaved corncobs at the bottom of the cage as bedding. The dimensions of the cages were 390 × 180 × 180 mm. Environmental factors: Average air temperature ranged from 20 to 26 °C with average relative air humidity ranging from 40 to 70%. Noise was below 60 decibels. Ventilation times were more than 15 times/hour. Air velocity was 0.1~0.2m/s. The ammonia concentration was below 14/(mg/m³). Working illumination was 150~300LX and animal illumination was 15~20LX. The nutritional components of mouse food include: water content: ≤10%, crude protein: ≥18%, crude fat: ≥4%, crude fiber: ≥5%, minerals: ≥4%, calcium: 1.0–1.8%, Phosphorus: 0.6-1.2%. The water that mice drink is sterilized by the animal drinking system.
Cells SiHa were harvested during the exponential-growth phase, washed 3 times with serum-free medium, followed by resuspension at a concentration of 2 × 10^6 per mL. A total of 100 μL of cell suspension was injected into SCID mice subcutaneously. After the tumors had grown to 100−150 mm^3, all the mice were randomized into 5 groups (5 mice for each group, 25 mice total). The mice were treated daily via oral gavage administration with 12O (5, 10, or 20 mg kg^−1 d^−1), cisplatin (20 mg kg^−1 d^−1), or vehicle. […] Mice were monitored for side effects every day. Body weights and tumor sizes were determined every other day and volume was also observed. At the end-point of the study, all mice had survived. Mice were euthanized and the subcutaneous tumor tissues were stripped and collected. Tumor measurements were calculated using a digital vernier caliper, and the volumes were determined using the following calculation: (short^2) × long × 0.5. Inhibition rate of tumor growth was calculated using the following formula: 100 × {1 − [(tumor volume final-tumor volume initial) for 12O-treated group]/ [(tumor volume final-tumor volume initial) for the vehicle-treated group]} [23].

`CC(C)n1nnc2ccc(-c3nc(Nc4ccc(CNC(=O)C5(C(=O)Nc6ccccc6)CC5)cc4)ncc3F)cc21` [12O] was tested, and the IC50 (SKOV3) was 29 nM, the IC50 (SiHa) was 9 nM and the IC50 (4T1) was 68 nM. It also gave an IC50 (H460) of 41 nM, an inhibition at 1 µM (KDR (VEGFR2)) of 81% and an inhibition at 1 µM (c-Kit(h)) of 15%. The inhibition at 1 µM (Src(1-530)(h)) was 46%, the “Tumor growth inhibition (TGI)” value (SiHa xenograft; 5 mg/kg oral) was 51.25% and the “Tumor growth inhibition (TGI)” value (SiHa xenograft; 10 mg/kg oral) was 65.52%. The “Tumor growth inhibition (TGI)” value (SiHa xenograft; 20 mg/kg oral) was 79.29% and the “toxicity in treated mice (body weight)” value (SiHa xenograft; SiHa xenograft mice, 5, 10 and 20 mg/kg oral daily) was “without obvious toxicity”.
